Numbers after ± are expanded uncertainties.

The conditions of series [1]: 298.15 K; 101.33 kPa; Liquid.
Series [2] in a line: refractive index (Na D-line) (dimensionless). Particulars: 298.15 K; 101.33 kPa; Liquid; Standard Abbe refractometry.

With `CCOC=O` [ethyl methanoate], in series [1], the mass density is listed as 914.17 ± 1.6 kg/m3. In series [2], the refractive index was determined as 1.358 ± 0.0009.

`CCCCC(=O)OCC` [ethyl pentanoate]: the mass density in series [1] was 869.42 ± 0.62 kg/m3. In series [2], the refractive index was determined as 1.398 ± 0.0008.

In the case of `CCOC(=O)CC` [ethyl propanoate], the mass density in series [1] stood at 884.02 ± 0.6 kg/m3. In series [2], the refractive index amounted to 1.3815 ± 0.0008.

As a reminder, the mass density is the mass of a sample divided by its volume. One may read the refractive index as a measure of how strongly the sample bends light.

(Values after the NIST ThermoML archive (doi:10.1016/j.jct.2005.03.020).)
